Data: patent US20200045956A1, “POLYPEPTIDE SPERM STABILISER FOR SEMEN USED IN ARTIFICIAL INSEMINATION” (UNIVERSIDAD DE LA FRONTERA, priority 2017, published 2020)

Test system: porcine spermatozoa
Assay: Progressive motility / viability of gametes incubated in fertilizing solution with FB-sp (CASA method, optical microscopy)
Format: cell-based
Method: A test of the progressive motility of gametes incubated in fertilizing solution added with the FB-sp bio-stabiliser polypeptide was performed. Progressive gametes are spermatozoa that have normal mobility capacity and are suitable for fertilizing.
It can be seen that the incubation of spermatozoa of porcine boars with FB-sp (●) (10 μM) preserves progressive motility up to 85% of spermatozoa for a period of 7 days, while the control (▪) without stabiliser decreases to a value of 70% on day 7, the difference increases over the days.

Q: “RPGLPVFSPL (Spermatic biostabilizer FB-sp) [polypeptide sperm stabiliser of 10 amino acids: Arg, Pro, Gly, Leu, Pro, Val, Phe, Ser, Pro, Leu]” was tested. Which “progressive motility of spermatozoa preserved” value (FB-sp 10 μM, 17° C., period of 7 days, porcine boar spermatozoa) did it give?
A: The value was “up to 85%”.

Q: And the survival (extender with FB-sp added, after 7 days)?
A: The survival was “over 65%”.
